Measurements reported in patent publication US8445467B2, “Reducing risk of type 2 diabetes (T2D)” (Joslin Diabetes Center, Inc., priority 2006, dated 2013).
“And” between values parts separate entries of the source, which are not always exact repeats. Identical values can stand only once. “Also recorded” adds a separate entry of the source.

Tests used:
[1] = test system: overweight non-diabetic adults; experiment: Glycemia (fasting glucose, OGTT, glycated albumin) in double-masked placebo controlled trial; format: in vivo, human
From the text: (§1) The ability of high doses of systemic salsalate to reduce systemic inflammation and improve metabolic parameters was investigated in a double-masked placebo controlled trial of 20 overweight non-diabetic adults (age: 24 yrs±1, gender 17F/3M, BMI 38 kg/m^2±2), evaluated at baseline and after one month of dally administration of oral salsalate 4 g or placebo.
Subjects were under 30 years old, and obese as defined by a body mass Index (BMI) of ≧ 30 kg/m^2 Participants were excluded for recent blood donation, change in weight of more than 5% in the preceding six months or use of medication known to alter weight, acute febrile illness, biochemical evidence of renal or hepatic dysfunction, aspirin allergy, history of gastritis or gastrointestinal bleeding, current medications known to altar glucose metabolism, or diabetes mellitus based on screening evaluation. Female participants were excluded for pregnancy, lactation, or lack of current use of a hormonal or barrier contraceptive method.
(§2) Participants were instructed to consume a standard high-carbohydrate diet (250-300 grams/day) and abstain from strenuous exercise for three days prior to undergoing, baseline and final evaluations. Subjects were additionally instructed not to alter dietary or exercise habits daring the study Blood pressure was measured twice with the patient supine for 10 minutes. Fasting lipids and cytokines were measured, and oral glucose tolerance tests (OGTT) were performed with glucose, insulin, C-peptide and free fatty acid levels measured prior to and 30, 60, 90 and 120 minutes after 75-gram glucose load. All subjects were non-diabetic based on current American Diabetes Association guidelines (Diagnosis and Classification of Diabetes Mellitus. Diabetes Care 28:S37-S42 (2005)). AUC data were calculated by triangulation. Insulin resistance was determined using homeostasis model assessment (HOMA-IR) for insulin and C-peptide as described using the modified formula: HOMA-IRC-peptide=(fasting C-peptide*fasting glucose)/22.5 See, e.g., Matthews et al, Diabetologia 28:41.2-419 (1985); Wallace et al., Diabetes Care 27; 1487-4495 (2004).
(§3) Compliance was evaluated with blood salicylate levels.
(§4) Glucose was measured by glucose oxidation, cholesterol and HDL by cholesterol esterase assay, triglycerides via hydrolysis to glycerol and FFA (Beckman Synchron CX3delta and CX9, Beckman Coulter, Brea, Calif.), and glycohemoglobin by HPLC (TOSHO 2.2™, Tosoh Bioscience, San Francisco, Calif.). Immunoassays were performed in duplicate on serum specimens by commercial assay including RIA for insulin and C-peptide (Diagnostic Systems Laboratories, Webster, Tex.), and adiponectin (Linco research, St. Charles, Mo., USA); ELISA for free fatty acids (WAKO chemicals, Richmond, Va., USA), and IL-6 and VCAM-1 (R& D Systems, Minneapolis, Minn., USA). CRP was analysed by immunoturbidometry (WAKO chemicals, Richmond, Va., USA), Salicylate levels were assessed commercially using a colorimetric assay (Quest Laboratories, Cambridge, Mass., USA). Glycated albumin was evaluated with the use of a Hitachi 911 lipid and protein analyzer and kits from AsahiKasei (Tokyo, JP). Glycated albumin was calculated by determining (1) the colorimetric measurement of total, albumin; (2) partial enzymatic digestion of albumin at glycated sites; (3) re-assessment of albumin; (4) % glycated albumin=1-3.
The primary endpoint was change from, baseline in glycemic measures using between group comparisons. Secondary outcomes were also assessed as change from baseline within group. Data are presented as mean±standard error unless otherwise noted. Unpaired (salsalate vs. placebo) and paired (pre vs. post) Student t-tests were performed. Treatment effects were determined by calculating differences between baseline sad end of treatment values divided by the baseline value to determine a percent change for each participant. […]

[2] = test system: overweight non-diabetic adults; experiment: Insulin, C-peptide and HOMA-IR in double-masked placebo controlled trial; format: in vivo, human
From the text: as §1, §2, §3, §4
(§5) The primary endpoint was change from, baseline in glycemic measures using between group comparisons. Secondary outcomes were also assessed as change from baseline within group. Data are presented as mean±standard error unless otherwise noted. Unpaired (salsalate vs. placebo) and paired (pre vs. post) Student t-tests were performed. Treatment effects were determined by calculating differences between baseline sad end of treatment values divided by the baseline value to determine a percent change for each participant. Repeated measures of ANOVA and area under curve analyses were performed to compare response to oral glucose load before and after treatment. Only subjects completing the trial were included in data analysis. Results were considered significant with two-tailed p-values <0.05.

[3] = test system: overweight non-diabetic adults; experiment: Safety and tolerability in the trial
[4] = test system: overweight non-diabetic adults; experiment: Cytokines, adipokines and inflammatory markers pre- and post-one month of therapy; format: in vivo, human
Experimental: as §1, §4, §5
To evaluate the proposed anti-inflammatory mechanism of action for improvement in glycemia, cytokines and adipokines were assessed pre- and post-one month of therapy in the same population described in Example 1.

cyclooxygenase enzymes = details: cited from earlier work
IKKβ/NF-κB = details: cited from earlier work
[5] = over the one-month period, p>0.1
[6] = following one month of salsalate therapy

## O=C(Oc1ccccc1C(=O)O)c1ccccc1O [salsalate, 2-hydroxybenzoE acid, 2-carboxyphenyl ester]
[1]
  fasting glucose compared to placebo (FIG. 1A): reduced
  glycated albumin compared to placebo (FIG. 1A): reduced
  post oral glucose challenge glucose area under the curve compared to placebo (FIG. 1A): reduced
[1]; after one month of salsalate, baseline 5.0±0.2, p<0.03
  fasting plasma glucose level after treatment: 4.6 ± 0.1 mmol/L
[1]; after one month of salsalate, baseline 12.4±0.4%, p<0.003
  glycated albumin after treatment: 10.3±0.3%
[1]; oral salsalate 4 g daily, one month, 75 g oral glucose, placebo increased by 6±3%, p=0.003
  reduction in glucose area under the curve during oral glucose tolerance testing: 14±5%
[1]; oral salsalate 4 g daily, one month, mean±SE, placebo increase of 5±2%, p<0.002
  reduction in fasting glucose, change from baseline: 8±4%
[1]; oral salsalate 4 g daily, one month, placebo 0.6±0.9%, p<0.002
  reduction in glycated albumin, change from baseline: 17±4%
[1]; within group, one month of salsalate, repeated measure analysis p<0.01
  glycemia response to glucose load: improvements in glycemia; also recorded: improved
[2]; after one month of salsalate, baseline 1.6±0.2, p=0.02
  fasting C-peptide levels after treatment: 1.1 ± 0.2 nmol/L
[2]; one month of salsalate, placebo increase of 4±7%, p=0.02
  reduction in C-peptide AUC post glucose challenge: 23±4%
[2]; one month of salsalate, placebo increase of 5±6%, p<0.01
  reduction in fasting C-peptide, change from baseline: 30±7%
[2]; one month of salsalate, placebo increased 9±5%, p=0.003
  HOMA IRc peptide lowered by: 35±8%
[2]; post one month of salsalate, pre 4.6±0.9, p=0.9, not significantly changed
  HOMA-IR using insulin, post treatment: 4.2±0.6
[2]; pre vs post one month of salsalate
  fasting insulin values: unchanged
[2]; pre- and post-salsalate, 75 g oral glucose
  insulin levels following glucose challenge: remained unchanged
[2]; salsalate compared to placebo
  insulin sensitivity calculated by HOMA IRc-peptide (FIG. 2C): improvement
[2]; salsalate vs placebo
  C peptide response to Oral Glucose Tolerance Test calculated by AUC (FIG. 2C): significant between group difference
[3]; actively treated participants after dose reduction
  reduced dose tolerated without symptoms (individual participants): 3.5 grams per day and 3.0 grams per day
[3]; actively treated, resolved spontaneously
  participants with transient mild transaminitis at the final visit: two
[3]; during the trial
  changes in anion gap: no noted changes
  changes in laboratory analysis of electrolytes: no noted changes
  changes in laboratory analysis of renal function: no noted changes
[3]; final visit, resolved spontaneously
  ALT/AST elevation in individual actively treated participants: similarly mild elevation in both ALT and AST; also recorded: less than twice the upper range of normal
[3]; initiated on 4.0 grams/day orally in two equal doses, on study medication
  participants requiring dose reduction due to complaints of tinnitus, headache or dizziness: Two
[3]; one month, 4 g daily
  symptomatic hypoglycemia: No symptomatic hypoglycemia
[3]; [5]
  change in mean alanine aminotransferase (ALT): no statistically significant change
  change in mean aspartate aminotransferase (AST): no statistically significant change
[3]; participants with rash on active therapy
  respiratory distress: No respiratory distress
[3]; received active therapy
  participants withdrawn due to rash: three
[4]
  adiponectin compared to placebo (FIG. 3A): increased significantly
[4]; after one month of salsalate, baseline 0.46±0.08, p=0.05
  fasting non-esterified fatty acids (FFA) levels after treatment: 0.25±0.05 mEq/L
[4]; after one month of salsalate, baseline 10.6±1.7, p=0.01
  adiponectin after treatment: 16.2 ± 2.7 mg/L
[4]; after one month of salsalate, baseline 48.2±10.5, p=0.05
  CRT concentrations after treatment: 30.2 ± 7.4 nmol/L
[4]; [6]
  II-6: did not change significantly
  soluble VCAM-1: did not change significantly
[4]; one month of salsalate, placebo decreased 1±5%, p=0.003
  adiponectin increase, change from baseline: 56±17%
[4]; p<0.05
  C-reactive protein (CRP) following treatment (FIG. 3B): lower
  Free Fatty Acids (FFA) following treatment (FIG. 3B): lower
Cyclooxygenase enzymes
  inhibition of cyclooxygenase enzymes compared to aspirin: much weaker inhibitor
IKKβ/NF-κB
  inhibition of IKKβ/NF-κB compared to aspirin: equipotent inhibitor
